Experimental data from the NIST ThermoML archive (doi:10.1016/j.jct.2013.05.003).
Numbers after ± are expanded uncertainties.

Legend:
[1] = xn = mol fraction of the nth substance listed; details: 283.15 K; 101.3 kPa; Liquid; fixed-path interferometer; x2 = 0
[2] = 101.3 kPa, Liquid, Sing-around technique in a fixed-path interferometer

| SMILES | speed of sound [1] | speed of sound ([2]; 283.15 K) | speed of sound ([2]; 288.15 K) | speed of sound ([2]; 293.15 K) | speed of sound ([2]; 298.15 K) | speed of sound ([2]; 303.15 K) |
| --- | --- | --- | --- | --- | --- | --- |
| O [water] + CCOCCCN | 1447.3 ± 1.3 m/s | – | – | – | – | – |
| O [water] | – | 1447.3 ± 1.3 m/s | – | – | – | – |
| CCOCCCN [3-ethoxy-1-propanamine] | – | 1386.4 ± 1.6 m/s | 1364.2 ± 1.6 m/s | 1342 ± 1.6 m/s | 1321.2 ± 1.6 m/s | 1300.4 ± 1.6 m/s |
